{"source": "patent US5354754A", "about": "“Pyrrolopyrimidines, their production and use” (Takeda Chemical Industries, Ltd., priority 1989, dated 1994)", "key": {"[1]": {"system": "glycinamide ribonucleotide transformylase", "conditions": "in words, Journal of Medicinal Chemistry, 28, 914(1985); cited from earlier work"}, "[2]": {"system": "dihydrofolic acid reductase", "conditions": "in words, prior art; cited from earlier work"}, "[3]": {"system": "Human epidermoid carcinoma KB cells", "assay": "cell growth inhibiting effect on KB cells (MTT, 72 hours)", "type": "cell-based", "conditions": "37° C., 5% CO2, MTT, absorbance at 590 nm", "experimental": "The cell growth inhibiting effect (IC50) on KB cells of the compounds obtained in the following Examples was measured by the following method. (Hereinafter, % means weight %.)\nHuman epidermoid carcinoma KB cells (1×10^4 /ml) prepared by a conventional method were inoculated in a volume of 0.1 ml for each hole of the 96-microwell plate, and cultured at 37° C. for 24 hours without agitation in an atmosphere of 5% CO2. A 10% solution of one compound obtained by Example in 10% MEM (minimal essential medium, Nissui Pharmaceutical Co. Ltd, Japan) was added thereto, and the cells were cultured again at 37° C. for 72 hours without agitation in an atmosphere of 5% CO2. The culture was removed by using a micropipet, and another 10% solution 0.1 ml of MTT [3-(4,5-dimethylthiazol-2-yl)-2,5-diphenyltetrazolium bromide] (Dojin Laboratories, Japan) in 10% MEM (1.0 mg/ml) was added thereto. The cells were cultured at 37° C. for 4 hours. A 10% SDS [sodium dodecylsulfate](Wako Pure Chimicals, Japan) solution (0.1 ml) was further added, and the cells were cultured at 37° C. for 24 hours. The absorbance at 590 nm was measured, and the concentration of a drug needed for decreasing the number of cells in non-treated control group to a degree of 50% was determined as IC50 value of the compound."}}}
{"smiles": "Nc1nc2c(c(=O)[nH]1)C[C@@H](CCc1ccc(C(=O)N[C@@H](CCC(=O)O)C(=O)O)cc1)CN2", "note": "[DDATHF]", "values": [{"measurement": "inhibition of glycinamide ribonucleotide transformylase", "setting": "[1]", "value": "main mechanism of which consists in inhibition of glycinamide ribonucleotide transformylase"}, {"measurement": "inhibition of dihydrofolic acid reductase", "setting": "[2]", "value": "does not inhibit dihydrofolic acid reductase"}]}
{"smiles": "Nc1nc(N)c2c(CCCc3ccc(C(=O)N[C@@H](CCC(=O)O)C(=O)O)s3)c[nH]c2n1", "note": "[Example 3, N-[5-(3-(2,4-diamino-7H-pyrrolo[2,3-d]pyrimidin-5-yl)propyl)-2-thenoyl]-L-glutamic acid]", "values": [{"measurement": "IC50", "setting": "[3]", "value": 0.43, "unit": "ng/mL"}]}
{"smiles": "CN(Cc1cnc2nc(N)nc(N)c2n1)c1ccc(C(=O)N[C@@H](CCC(=O)O)C(=O)O)cc1", "note": "[methotrexate]", "values": [{"measurement": "inhibition of dihydrofolic acid reductase", "setting": "[2]", "value": "inhibit the reduction from dihydrofolic acid to tetrahydrofolic acid by coupling strongly with the dominant enzyme in the second step"}]}
